The values that follow come from patent US6437184B1, “Oxime compounds, their use, and intermediates for their production” (Sumitomo Chemical Company, Limited, priority 1997, dated 2002).

SMILES strings stand for the structures.

One data set has as its system Tetranychus urticae. The data set is described as follows: Acaricidal test against Tetranychus urticae. The note with it: 500 ppm water dilution, 15 ml sprayed over brush bean with female adults set free 6 days before; after 8 days. The format is in vivo. On the procedure:
About twenty female adults of Tetranychus urticae were set free on brush bean (Phaseolus vulgaris) in the primary leaf stage, which had been potted in a plastic cup for 7 days after the seeding. After 6 days, a 200-fold water dilution (500 ppm) of a test compound formulation obtained according to Formulation Example 1 or 2 was sprayed at a volume of 15 ml over the plant. After 8 days, each compound was evaluated for acaricidal activity on the following criteria.
−: almost no damage and completely no surviving mites
±: slight damage and some few surviving mites
+: rather smaller damage and a rather fewer surviving mites than non-treatment case
++: same as non-treatment case

The test system of the next data set is Musca domestica. As to the kind of experiment: Insecticidal test against Musca domestica. The format is in vivo. The note with it: 24 h, 500 ppm water dilution, 0.7 ml on filter paper with sucrose, female adults, after 1 day, read-out: mortality. Put shortly:
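Filter paper treated with 500 ppm water dilution of formulated compound, with sucrose as diet; ten female adult houseflies confined in covered cup. Mortality determined from adult survival after 1 day.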

For a further data set, the system named is Plutella xylostella. As to the kind of experiment: Insecticidal test against Plutella xylostella. The format is in vivo. The note with it: 96 h, 50 ppm water dilution sprayed over potted cabbages, 25 ml per pot, third-instar larvae, after 4 days, read-out: mortality. On the procedure: To a water dilution (50 ppm) of a test compound formulation obtained according to Formulation Example 1 was added a spreading agent (New RINOU available from Nihon Noyaku K.K.) at a dilution ratio of 3000-fold. The dilution was sprayed over potted cabbages at the four to five leaf stage at a volume of 25 ml per pot. After the treated plants were air dried, ten third-instar larvae of Plutella xylostella were set free on each pot. After 4 days, the mortality was determined.

The next data set has as its system Heliothis virescens. As to the kind of experiment: Insecticidal test against Heliothis virescens. The format is in vivo. The following applies: 168 h, 100 ppm water dilution, 0.2 ml on surface of artificial diet, second-instar larvae, after 7 days. On the procedure: A water dilution (100 ppm) of a test compound formulation obtained according to Formulation Example 1 was added dropwise at a volume of 0.2 ml and uniformly spread over the surface of an artificial diet having a weight of 3 g, which had been prepared in a 30 ml plastic cup. After air drying, one second-instar larva of Heliothis virescens was set free in each cup. Ten larvae were used for each treatment. After 7 days, the mortality of the larvae was determined.

The test system of the next data set is Cydia pomonella. The data set is described as follows: Insecticidal test against Cydia pomonella. The format is in vivo. The note with it: 168 h, 100 ppm water dilution, 0.2 ml on surface of artificial diet, eggs just before hatching, after 7 days. On the procedure: A water dilution (100 ppm) of a test compound formulation obtained according to Formulation Example 1 was added dropwise at a volume of 0.2 ml and spread over the surface of an artificial diet having a weight of 3 g, which had been prepared in a 30 ml polyethylene cup. After air drying, placed in the cup was a piece of wax paper (about 2.5 cm square) having about 20 eggs which had been laid by Cydia pomonella and were just before hatching. Four pieces of such wax paper were used for each treatment. After 7 days, the mortality of the larvae was determined.

The next data set relates to Helicoverpa armigera. The data set is described as follows: Insecticidal test against Helicoverpa armigera. The format is in vivo. The note with it: 120 h, 100 ppm water dilution, cotton leaf fragment immersed 10 seconds, third-instar larvae, after 5 days. How it is done: A cotton leaf fragment (diameter, 5 cm) was immersed for 10 seconds Lin a water dilution (100 ppm) of a test compound formulation obtained according to Formulation Example 1. This fragment was taken out from the dilution, air dried, and placed in a polyethylene cup having a diameter of 5.5 cm. One third-instar larva of Helicoverpa armigera was set free in each cup. Ten larvae were used for each treatment. After 5 days, the mortality of the larvae was determined.

The mortality is the share of the test organisms that died. In the case of `CCCC=NOCCCCCOc1c(Cl)cc(OCC=C(Cl)Cl)cc1Cl` [(542), butanal O-(5-(2,6-dichloro-4-(3,3-dichloro-2-propenyloxy)phenoxy)pentyl)oxime], in the data set with Tetranychus urticae, the acaricidal activity result is ““−” or “±””. The mortality at 500 µg/mL with Musca domestica was at least 80%. For the compound `CC(CC(C)C)=NOCCCCCCOc1c(Cl)cc(OCC=C(Cl)Cl)cc1Cl` [(589), 4-methyl-2-pentanone O-(6-(2,6-dichloro-4-(3,3-dichloro-2-propenyloxy)phenoxy)hexyl)oxime], the mortality at 50 µg/mL in the data set with Plutella xylostella is at least 80%. For the same compound, the acaricidal activity entry in the data set with Tetranychus urticae is given as ““−” or “±””. Consider `CC(CC(C)(C)C)=NOCCCCCCOc1c(Cl)cc(OCC=C(Cl)Cl)cc1Cl` [(593), 4,4-dimethyl-2-pentanone O-(6-(2,6-dichloro-4-(3,3-dichloro-2-propenyloxy)phenoxy)hexyl)oxime], for which the acaricidal activity entry with Tetranychus urticae was ““−” or “±””. In the data set with Heliothis virescens, `ClC(Cl)=CCOc1cc(Cl)c(OCCCCOCC=NOCC=C(Br)Br)c(Cl)c1` [(3), 4-(2,6-dichloro-4-(3,3-dichloro-2-propenyloxy)phenoxy)butyloxyacetaldehyde O-(3,3-dibromo-2-propenyl)oxime] came in with a mortality at 100 µg/mL of at least 80%. `CC(COCCCCCOc1c(Cl)cc(OCC=C(Cl)Cl)cc1Cl)=NOCC(Cl)(Cl)Cl` [(173), 5-(2,6-dichloro-4-(3,3-dichloro-2-propenyloxy)phenoxy)pentyloxyacetone O-(2,2,2-trichloroethyl)oxime]: the acaricidal activity entry in the data set with Tetranychus urticae is ““−” or “±””. In addition, in the data set with Musca domestica, the mortality at 500 µg/mL is at least 80%. `CC(=NOCCCCCOc1c(Cl)cc(OCC=C(Cl)Cl)cc1Cl)C(C)(C)C` [(559), 3,3-dimethyl-2-butanone O-(5-(2,6-dichloro-4-(3,3-dichloro-2-propenyloxy)phenoxy)pentyl)oxime] gave a mortality at 100 µg/mL with Heliothis virescens of at least 80%. Take `ClC(Cl)=CCOc1cc(Cl)c(OCCCON=Cc2ccccc2)c(Cl)c1` [(523), benzaldehyde O-(3-(2,6-dichloro-4-(3,3-dichloro-2-propenyloxy)phenoxy)propyl)oxime]: the mortality at 50 µg/mL with Plutella xylostella is at least 80%. This compound showed a mortality at 100 µg/mL with Heliothis virescens of at least 80%. As a reminder, the melting point is the temperature of the solid-liquid transition. With `ClC(Cl)=CCON=CCOc1ccc(COc2c(Cl)cc(OCC=C(Cl)Cl)cc2Cl)cc1` [(360), 2-(4-(2,6-dichloro-4-(3,3-dichloro-2-propenyloxy)phenoxymethyl)phenoxy)acetaldehyde O-(3,3-dichloro-2-propenyl)oxime], the melting point is 87.9 °C. Same read-out and setting: with `CC(=NOC(C)(C)C)c1ccc(OCCCCOc2c(Cl)cc(OCC=C(Cl)Cl)cc2Cl)cc1` [(298), 4′-(4-(2,6-dichloro-4-(3,3-dichloro-2-propenyloxy)phenoxy)butyloxy)acetophenone O-tert-butyloxime] the figure was 56.4 °C. `CON=Cc1ccc(OCCCCOc2c(Cl)cc(OCC=C(Cl)Cl)cc2Cl)cc1` [(306), 4-(4-(2,6-dichloro-4-(3,3-dichloro-2-propenyloxy)phenoxy)butyloxy)benzaldehyde O-methyloxime] came in with a mortality at 100 µg/mL in the data set on Cydia pomonella of at least 80%. Besides, the acaricidal activity entry with Tetranychus urticae was ““−” or “±””. Compound `ClC(Cl)=CCOc1cc(Cl)c(OCc2ccc(C=NOCc3ccccc3)cc2)c(Cl)c1` [(313), 4-(2,6-dichloro-4-(3,3-dichloro-2-propenyloxy)phenoxymethyl)benzaldehyde O-benzyloxime] returned a melting point of 70.3 °C. Consider `CC(COCCCCCOc1c(Cl)cc(OCC=C(Cl)Cl)cc1Cl)=NOC(=O)C(C)(C)C` [(178), 5-(2,6-dichloro-4-(3,3-dichloro-2-propenyloxy)phenoxy)pentyloxyacetone O-pivaloyloxime], for which the acaricidal activity entry in the data set with Tetranychus urticae is reported as ““−” or “±””. `ON=CCOCCCCOc1c(Cl)cc(OCC=C(Cl)Cl)cc1Cl` [(148), 4-(2,6-dichloro-4-(3,3-dichloro-2-propenyloxy)phenoxy)butyloxyacetaldehyde oxime] registered a melting point of 62.8 °C.

In turn, `ClC(Cl)=CCOc1cc(Cl)c(OCCCCOCC=NOCc2ccccc2)c(Cl)c1` [(5), 4-(2,6-dichloro-4-(3,3-dichloro-2-propenyloxy)phenoxy)butyloxyacetaldehyde O-benzyloxime] returned a mortality at 100 µg/mL in the data set on Heliothis virescens of at least 80%. Turning to `ON=Cc1ccc(OCCCCCOc2c(Cl)cc(OCC=C(Cl)Cl)cc2Cl)cc1` [(333), 4-(5-(2,6-dichloro-4-(3,3-dichloro-2-propenyloxy)phenoxy)pentyloxy)benzaldehyde oxime], the melting point worked out at 90.1 °C. As for `CCCON=C(C)c1ccc(COc2c(Cl)cc(OCC=C(Cl)Cl)cc2Cl)cc1` [(346), 4′-(2,6-dichloro-4-(3,3-dichloro-2-propenyloxy)phenoxymethyl)acetophenone O-propyloxime], in the data set with Heliothis virescens, the mortality at 100 µg/mL was at least 80%. As to `CC(=NOCCCCCCOc1c(Cl)cc(OCC=C(Cl)Cl)cc1Cl)C(C)C` [(583), 3-methyl-2-butanone O-(6-(2,6-dichloro-4-(3,3-dichloro-2-propenyloxy)phenoxy)hexyl)oxime], the acaricidal activity entry in the data set with Tetranychus urticae is listed as ““−” or “±””.

`CC(C)(C)ON=CCOCCCCOc1c(Cl)cc(OCC=C(Cl)Cl)cc1Cl` [(6), 4-(2,6-dichloro-4-(3,3-dichloro-2-propenyloxy)phenoxy)butyloxyacetaldehyde O-tert-butyloxime] had a mortality at 100 µg/mL in the data set on Cydia pomonella of at least 80%. Besides, in the data set with Tetranychus urticae, the acaricidal activity result is given as ““−” or “±””. The mortality at 500 µg/mL in the data set on Musca domestica is at least 80%.

As for `ClC(Cl)=CCON=Cc1ccc(COc2c(Cl)cc(OCC=C(Br)Br)cc2Cl)cc1` [(280), 4-(2,6-dichloro-4-(3,3-dibromo-2-propenyloxy)phenoxymethyl)benzaldehyde O-(3,3-dichloro-2-propenyl)oxime], the melting point was 88.2 °C.

On to `CC(=NO)c1ccc(OCCOc2c(Cl)cc(OCC=C(Cl)Cl)cc2Cl)cc1` [(337), 4′-(2-(2,6-dichloro-4-(3,3-dichloro-2-propenyloxy)phenoxy)-ethoxy)acetophenone oxime], for which the melting point is 121 °C. Turning to `CC(CC(C)(C)C)=NOCCCCCOc1c(Cl)cc(OCC=C(Cl)Cl)cc1Cl` [(592), 4,4-dimethyl-2-pentanone O-(5-(2,6-dichloro-4-(3,3-dichloro-2-propenyloxy)phenoxy)pentyl)oxime], the acaricidal activity entry in the data set on Tetranychus urticae is on record as ““−” or “±””. As to `CCc1cc(OCC=C(Cl)Cl)cc(CC)c1OCCCCOCC=NOC(C)(C)C` [(11), 4-(2,6-diethyl-4-(3,3-dichloro-2-propenyloxy)phenoxy)butyloxyacetaldehyde O-tert-butyloxime], the mortality at 100 µg/mL in the data set with Heliothis virescens, in the data set on Helicoverpa armigera and with Cydia pomonella was at least 80% each time.

In the case of `ClC(Cl)=CCON=CCCCCCOc1c(Cl)cc(OCC=C(Cl)Cl)cc1Cl` [(76), 6-(2,6-dichloro-4-(3,3-dichloro-2-propenyloxy)phenoxy)hexanal O-(3,3-dichloro-2-propenyl)oxime], the mortality at 50 µg/mL in the data set on Plutella xylostella is at least 80%. Further, the mortality at 100 µg/mL in the data set with Heliothis virescens and in the data set on Cydia pomonella was at least 80% throughout. In turn, `CCON=C(C)COc1c(Cl)cc(OCC=C(Cl)Cl)cc1Cl` [(30), (2,6-dichloro-4-(3,3-dichloro-2-propenyloxy)phenoxy)acetone O-ethyloxime] had a melting point of 65.4 °C. `ClC(Cl)=CCOc1cc(Cl)c(OCCCCCOCC=NOCC(Cl)(Cl)Cl)c(Cl)c1` [(160), 5-(2,6-dichloro-4-(3,3-dichloro-2-propenyloxy)phenoxy)pentyloxyacetaldehyde O-(2,2,2-trichloroethyl)oxime]: in the data set on Heliothis virescens, the mortality at 100 µg/mL was at least 80%.
